Measurements from patent publication US6048840A, “Hypoglycaemic peptides” (Monash University, priority 1987, dated 2000).
Non-standard residues stand in square brackets, D forms with d. No end group written: not given here.

Columns and labels:
[1] = system: cultured muscle cells (L6 rat skeletal muscle cell line); test: Cultured cell assay for stimulation of glucose uptake; format: cell-based; conditions: peptide 10 μg/ml
Source text: (§1) In these assays collagenase-dispersed rat adipocytes, cultured muscle cells (L6 rat skeletal muscle cell line) and hemidiaphragm preparations were employed.
(§2) The effect of the β imide form peptides on glucose metabolism is further shown by their ability to stimulate glucose uptake and glycogen synthesis by cultured muscle cells and isolated rat hemidiaphragms.

[2] = system: isolated rat hemidiaphragms; test: Isolated muscle assay for stimulation of glycogen synthesis; format: cell-based; conditions: peptide 100 μg/ml
Source text: as §1, §2

rats = test: Change in blood glucose level in rats following intravenous injection of peptides; format: in vivo, rat
Source text: (i) Effect on basal blood glucose levels
Values are changes (means ±SEM) of blood glucose from the basal level (4.0-4.4 mmol glucose/l) at time 0. Differences between the control and test groups were statistically evaluated according to Student's t-test. N.S. indicates 2P>0.05.

Substance | Rate of Increase from Basal (glucose uptake) [1] [μmol glucose/hour] | Rate of Increase from Basal (glycogen synthesis) [2] [μmol glycogen/g tissue/h] | also measured
CYLSRLFDNA [Pep P168] | 4.0 | – | –
CYLSRLFDNA [Pep P202] | 1.9 | 0.44 | –
CYLSRLFDNN [Pep P197] | – | 0.17 | –
LSKLFDNA [Pep P090] | – | 0.16 | –
LSRIFDNA [Pep P087] | – | 0.36 | –
LSRLFDNA [Pep P051, b240 implies β imide form] | 3.3 | 0.74 | –
LSRLFDNAG [Pep P063] | 1.9 | – | –
LSRLFDQA [Pep P076] | – | 0.30 | –
LSRLHDNA [Pep P078] | – | 0.11 | –
LSRL[dF]DNA [Pep P057] | 2.0 | – | –
LSRVFDNA [Pep P086] | 4.9 | – | –
Pep (6-15): α-form synthetic peptide equivalent to hGH residues 6-15 (LSRLFDNAML; Somatotropin; UniProt P01241 32-41, looked up, fragment) | – | – | Difference from control means (rats; i.v., peptide 0.5 μmol/100 g, control decrease 1.05): 0.21 mmol/L; Hypoglycaemic effect / activity in words (rats; intravenous injection of peptide): active only in the β imide form; Decrease in blood glucose from basal levels (rats; intravenous injection, peptide 0.5 μmol/100 g, basal level 4.0-4.4 mmol glucose/l at time 0): 1.26 mmol glucose/l
SRLFDNA [Pep P015, synthetic peptide; b240 implies β imide form] | 1.5 | – | –
